This is an account of results in patent publication US6495576B2, “Aminal diones as potassium channel openers” (Abbott Laboratories, priority 2001, dated 2002).

The subject of the assay is Landrace pig bladder strips. The assay is described as follows: Functional potassium channel opening activity in isolated, field-stimulated bladder strips. The note with it: for Index: ED50 for P1075 divided by ED50 for test agonist in a given tissue, averaged; for EC50: amount causing 50% of the agent's maximal response, field stimulation 0.05 Hz, 0.5 ms, 20 volts, read-out: ED50 (the source's name); for Efficacy (%P1075) / Emax: maximal efficacy on stimulated twitch, relative to P1075. As for the experimental part: Compound were evaluated for functional potassium channel opening activity using tissue strips obtained from Landrace pig bladders.
Landrace pig bladders were obtained from female Landrace pigs of 9-30 kg. Landrace pig were euthanized with an intraperitoneal injection of pentobarbital solution, Somlethal ®, J. A. Webster Inc. Sterling Mass. The entire bladder was removed and immediately placed into Krebs Ringer bicarbonate solution (composition, mM: NaCl, 120; NaHCO3, 20; dextrose, 11; KCl, 4.7; CaCl2, 2.5; MgSO4, 1.5; KH2PO4, 1.2; K2EDTA, 0.01, equilibrated with 5% CO2/95% O2 pH 7.4 at 37° C.). Propranolol (0.004 mM) was included in all of the assays to block β-adrenoceptors. The trigonal and dome portions were discarded. Strips 3-5 mm wide and 20 mm long were prepared from the remaining tissue cut in a circular fashion. The mucosal layer was removed. One end was fixed to a stationary glass rod and the other to a Grass FT03 transducer at a basal preload of 1.0 gram. Two parallel platinum electrodes were included in the stationary glass rod to provide field stimulation of 0.05 Hz, 0.5 milli-seconds at 20 volts. This low frequency stimulation produced a stable twitch response of 100-500 centigrams. Tissues were allowed to equilibrate for at least 60 minutes and primed with 80 mM KCl. A control concentration response curve (cumulative) was generated for each tissue using the potassium channel opener P1075 as the control agonist. […] After a 60 minute rinsing period, a concentration response curve (cumulative) was generated for the test agonist in the same fashion as that used for control agonist P1075. The maximal efficacy of each compound (expressed as % relative to P1075) is reported. The amount of agent necessary to cause 50% of the agent's maximal response (ED50) was calculated using “ALLFIT” (DeLean et al., Am. J. Physiol., 235, E97 (1980)), hereby incorporated by reference. Agonist potencies were also expressed as an index relative to P1075. The index was calculated by dividing the ED50 for P1075 by the ED50 for the test agonist in a given tissue. Each tissue was used for only one test agonist, and the indices obtained from each tissue were averaged to provide an average index of potency.

Like-named read-outs stand apart in the source and are kept apart here.

Compound `CCC(CC)C(NC(=O)c1ccc(Cl)cc1)Nc1c(Nc2cccnc2)c(=O)c1=O` (stereo not drawn) [Example 21, 4-Chloro-N-(1-{[3,4-dioxo-2-(3-pyridinylamino)-1-cyclobuten-1-yl]amino}-2-ethylbutyl)benzamide] had an Index of 0.092.
Same read-out and setting: then `O=C(NC(Nc1c(Nc2cccnc2)c(=O)c1=O)C(F)(F)C(F)(F)F)c1cccc(Cl)c1` (stereo not drawn) [Example 26, 3-Chloro-N-(1-{[3,4-dioxo-2-(3-pyridinylamino)-1-cyclobuten-1-yl]amino}−2,2,3,3,3-pentafluoropropyl)benzamide], with 0.64; and `CC(C)(C)C(NC(=O)c1ccc(Cl)cc1)Nc1c(Nc2cccnc2Cl)c(=O)c1=O` (stereo not drawn) [Example 29, 4-Chloro-N-[1-({2-[(2-chloro-3-pyridinyl)amino]-3,4-dioxo-1-cyclobuten-1-yl}amino)-2,2-dimethylpropyl]benzamide], with 0.028.
As for `CC(C)(Cc1ccccc1)C(NC(=O)c1ccc(Cl)cc1)Nc1c(Nc2cccnc2Cl)c(=O)c1=O` (stereo not drawn) [Example 31, 4-Chloro-N-[1-({2-[(2-chloro-3-pyridinyl)amino]-3,4-dioxo-1-cyclobuten-1-yl}amino)-2,2-dimethyl-32-phenylpropyl]benzamide], the Index was found to be 0.039, the EC50 amounted to 2.9 µM and the “Efficacy (%P1075)” value was 76 %P1075.
In turn, `Cc1cccc(C(=O)NC(Nc2c(Nc3cccnc3Cl)c(=O)c2=O)C(C)(C)C)c1` (stereo not drawn) [Example 32, N-[1-({2-[(2-Chloro-3-pyridinyl)amino]-3,4-dioxo-1-cyclobuten-1-yl}amino)-2,2-dimethylpropyl]-3-methylbenzamide] registered an Index of 0.076.
Still for that read-out and setting: then `CC(C)(C)C(NC(=O)CCc1ccccc1)Nc1c(Nc2cccnc2)c(=O)c1=O` (stereo not drawn) [Example 36, N-(1-{[3,4-Dioxo-2-(3-pyridinylamino)-1-cyclobuten-1-yl]amino}-2,2-dimethylpropyl)-3-phenylpropionamide], with 0.063.
By Emax is commonly meant the greatest response seen or fitted, relative to the assay's reference. On to `CC(Cl)(Cl)C(NC(=O)c1cc(F)cc(F)c1)Nc1c(Nc2cccnc2)c(=O)c1=O` (stereo not drawn) [Example 51, N-(2,2-Dichloro-1-{[3,4dioxo-2-(3-pyridinylamino)-1-cyclobuten-1-yl]amino}propyl)-3,5-difluorobenzamide], for which the Index is recorded as 0.080. Further, where the note is “Sus scrofa”, the EC50 is 1.4 µM and the Emax came out at 96%.
In turn, `CC(C)(Cc1ccccc1)C(NC(=O)c1cc(F)cc(F)c1)Nc1c(Nc2cccnc2)c(=O)c1=O` (stereo not drawn) [Example 55, N-(1-{[3,4-Dioxo-2-(3-pyridinylamino)-1-cyclobuten-1-yl]amino}-2,2-dimethyl-3-phenylpropyl)-3,5-difluorobenzamide] displayed an Index of 0.053. For the same compound, for the setting “Sus scrofa”, the EC50 came to 2.3 µM and the Emax was determined as 75%.
Taken in the same sequence, the figures for `CC(C)(Cc1ccccc1)C(NC(=O)c1cccc(Cl)c1)Nc1c(Nc2cccnc2)c(=O)c1=O` (stereo not drawn) [Example 59, 3-Chloro-N-(1-{[3,4-dioxo-2-(3-pyridinylamino)-1-cyclobuten-1-yl]amino}-2,2-dimethyl-3-phenylpropyl)benzamide] were 0.062, 1.7 µM and 57%.
As for `Cc1cccc(C(=O)NC(Nc2c(Nc3cccnc3Cl)c(=O)c2=O)C(C)(C)Cc2ccccc2)c1` (stereo not drawn) [Example 61, N-[1-({2[(2-Chloropyiridin-3-yl)amino]-3,4-dioxo-1-cyclobuten-1-yl}amino)-2,2-dimethyl-3-phenylpropyl]-3-methylbenzamide], the Index was 0.50, the EC50 was determined as 0.47 µM and the “Efficacy (%P1075)” value amounted to 64 %P1075.
For `CC(C)(C)CC(NC(=O)c1cccc(Cl)c1)Nc1c(Nc2cccnc2)c(=O)c1=O` (stereo not drawn) [Example 64, 3-Chloro-N-(1-{[3,4-dioxo-2-(3 pyridinylamino)-1-cyclobuten-1-yl]amino}-3,3-dimethylbutyl)benzamide], the Index is on record as 0.025. For the same compound, under “Sus scrofa”, the EC50 turned out to be 4.2 µM and the Emax was found to be 76%.
Take `CC(C)(C)C(NC(=O)c1cccc(Br)c1)Nc1c(Nc2cccnc2)c(=O)c1=O` (stereo not drawn) [Example 66, 3-Bromo-N-(1-{[3,4-dioxo-2-(3-pyridinylamino)-1-cyclobuten-1-yl]amino}-2,2-dimethylpropyl)benzamide]: the Index is recorded as 0.040. Under “Sus scrofa”, the EC50 turned out to be 4.2 µM and the Emax came out at 74%.
In the same order, the values of `CC(C)(C)C(NC(=O)c1cccc(Br)c1)Nc1c(Nc2cccnc2Cl)c(=O)c1=O` (stereo not drawn) [Example 67, 3-Bromo-N-[1-({2-[(2-chloropyridin-3-yl)amino]-3,4-dioxo-1-cyclobuten-1-yl}amino)-2,2-dimethylpropyl]benzamide] are 0.029, 2.5 µM and 72%.
On to `CC(C)(C)C(NC(=O)c1cccc(F)c1)Nc1c(Nc2cccnc2Cl)c(=O)c1=O` (stereo not drawn) [Example 78], for which the Index came to 0.18, the EC50 amounted to 0.84 µM and the “Efficacy (%P1075)” value is given as 98 %P1075.
Compound `CC(C)(C)C(NC(=O)c1cc(Cl)cc(Cl)c1)Nc1c(Nc2cccnc2Cl)c(=O)c1=O` (stereo not drawn) [Example 79, 3,5-Dichloro-N-[1-({2-[(2-chloropyridin-3-yl)amino]-3,4-dioxocyclobut-1-en-1-yl}amino)-2,2-dimethylpropyl]benzamide] gave an Index of 0.024. Also, under “Sus scrofa”, the EC50 amounted to 4.6 µM and the Emax came out at 60%.
As for `CC(C)(Cc1ccccc1)C(NC(=O)c1ccccc1)Nc1c(Nc2cccnc2)c(=O)c1=O` (stereo not drawn) [Example 86], the Index was 0.24, the EC50 was found to be 0.64 µM and the “Efficacy (%P1075)” value was found to be 85 %P1075.
Turning to `CC(C)(C)C(NC(=O)CCc1ccccc1)Nc1c(Nc2cccnc2Cl)c(=O)c1=O` (stereo not drawn) [Example 87, N-[1-({2-[(2-chloropyridin-3-yl)amino]-3,4-dioxo-1-cyclobuten-1-yl}amino)-2,2-dimethylpropy1]-3-phenylpropanamide], the Index is reported as 0.039, the EC50 was determined as 1.9 µM and the “Efficacy (%P1075)” value is given as 96 %P1075.
On to `CC(C)(C)[C@H](NC(=O)c1cc(Cl)cc(Cl)c1)Nc1c(Nc2cccnc2Cl)c(=O)c1=O` [Example 108, (+) 3,5-Dichloro-N-[(1S)-1-({2-[(2-chloropyridin-3-yl)amino]-3,4-dioxocyclobut-1-en-1-yl}amino)-2,2-dimethylpropyl]benzamide], for which the Index is 0.033. Under “Sus scrofa”, the EC50 is 4.2 µM and the Emax was found to be 89%.
For `CCC(C)(C)N=C(NC#N)Nc1cccnc1` [Example P1075, reference compound], the “effect on stimulated twitch” value (control agonist, dose dependent, 10^−9 to 10^−5 M) was “completely eliminated the stimulated twitch”.
